US11535597B2, “Photoreactive ligands and uses thereof” (The Scripps Research Institute, priority 2017, dated 2022)
Entries after “also recorded” stand apart in the source; their conditions may differ.

Legend:
ZADH2 = biological target: T1, ZADH2 (Homo sapiens, UniProt Q8N4Q0); assay: MS-based (SILAC) competition of FFF probe 8 labeling of ZADH2 in HEK293T cells; type: binding; conditions: competition with FFF probe 8 (20 μM)
T1 construct: endogenous in cells; host or cells: HEK293T
T1 sequence (Q8N4Q0 1-377): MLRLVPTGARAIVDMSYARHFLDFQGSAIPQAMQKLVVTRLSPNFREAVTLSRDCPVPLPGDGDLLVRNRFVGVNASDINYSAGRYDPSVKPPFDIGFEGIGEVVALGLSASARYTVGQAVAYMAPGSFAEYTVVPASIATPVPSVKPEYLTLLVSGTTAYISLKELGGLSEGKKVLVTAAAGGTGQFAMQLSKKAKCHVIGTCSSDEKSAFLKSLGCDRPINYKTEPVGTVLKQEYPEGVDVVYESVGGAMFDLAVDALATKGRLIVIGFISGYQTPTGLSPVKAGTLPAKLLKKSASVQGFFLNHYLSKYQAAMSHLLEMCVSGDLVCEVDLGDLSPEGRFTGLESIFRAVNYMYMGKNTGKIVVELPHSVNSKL
Procedure: For gel-based experiments, cells were grown in 6-well plates to ˜90% confluence at the time of treatment. Cells were carefully washed with Dulbecco's phosphate buffered saline (DPBS) and replenished with fresh serum-free media containing indicated FFF probe, and, if applicable, competitors or DMSO vehicle (1 mL). Following incubation at 37° C. for 30 min, cells were directly exposed to 365 nm light for 10 min. For no UV experiments, cells were incubated at 4° C. for 10 min under ambient light. For MS-based experiments, cell labeling was performed in a similar manner as described above. Modifications to this protocol included using isotopically ‘light’ and ‘heavy’ SILAC cells that were grown to near complete confluence prior to treatment in 10 cm plates. In probe-versus-control probe and probe-versus-probe experiments, isotopically light cells were treated with indicated fragment probe, while the heavy cells were treated with control probe (1), or additional FFF probe to be compared, at indicated concentrations. […]
Cells pellets were lysed in cold DPBS (100-500 µL) using a Branson Sonifier probe sonicator (10 pulses, 30% duty cycle, output setting=4). […] Protein concentration was determined using the DC Protein Assay (Bio-Rad) and absorbance read using a Tecan, Infinite F500 plate reader following manufacturer's instructions. […]

PPARγ = biological target: T2, PPARγ (Homo sapiens, UniProt P37231); assay: GAL4-PPARγ luciferase reporter assay with empty control vector in HEK293T cells; type: cell-based; conditions: GAL4-PPARγ luciferase reporter and empty control vector
T2 construct: expressed in transfected cells; host or cells: HEK293T
T2 sequence (P37231 238-503 limits assumed): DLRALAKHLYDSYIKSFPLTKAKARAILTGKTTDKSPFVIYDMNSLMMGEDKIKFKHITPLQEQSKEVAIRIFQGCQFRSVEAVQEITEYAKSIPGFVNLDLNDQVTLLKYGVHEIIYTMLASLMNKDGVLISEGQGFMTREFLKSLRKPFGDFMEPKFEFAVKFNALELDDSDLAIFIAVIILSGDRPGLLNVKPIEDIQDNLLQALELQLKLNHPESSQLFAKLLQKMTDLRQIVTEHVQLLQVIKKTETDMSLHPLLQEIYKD
Procedure: HEK293T cells were transiently co-transfected using Polyethylenimine (Sigma) with a UAS-Luciferase reporter and a vector expressing the heterologous GAL4 DNA binding domain (DBD) or a GAL4 DNA binding domain::PPARγ ligand binding domain (LBD) chimeric protein, and full-length PTGR2. 24 hr after transfection, cells were treated either with vehicle (DMSO), 15k-PGE2 (20 μM), or fragment compounds. Rosiglitazone (2 μM), a synthetic PPARγ ligand, was used as control. 16 hr after incubation, cells were lysed in Cell Culture Lysis Reagent (Promega) and luciferase activity measured using the Luciferase Assay System (Promega).

Question: How did the “cross-reactivity with ZADH2” value (ZADH2) turn out when COc1ccccc1N1CCN(C(=O)Cc2ccccc2)CC1 [Compound 22, 1-(4-(2-Methoxyphenyl)piperazin-1-yl)-2-phenylethan-1-one] was run?
Answer: The value was “did not cross-react”.

Question: And the “direct modulation of PPARγ transcriptional activity” value (PPARγ)?
Answer: The value was “do not directly induce; also recorded: Neither 22 nor 23 directly modulated”.
